# Results as given in patent US20030113901A1, “Cell production” (priority 2000, published 2003).
# How the values were obtained:
# [1] = tested on: in vitro-derived neurectoderm (EBM7); experiment: Immunohistochemistry, NF200: neuron formation from in vitro-derived neurectoderm (EBM7); assay type: cell-based; details: EBM7s grown in the presence of 10 ng/ml NGF vs absence; anti-NF200 antibody, day 14
# Experimental: FIG. 1: The culture of in vitro-derived neurectoderm in the presence of NGF increases neuron formation. EBM^7s were seeded for 3 days in 50% DMEM/F12, 10 ng/ml FGF2, 0.1% ITSS, 1% FCS, in the presence or absence of 10 ng/ml NGF, and for an additional 4 days in 50% DMEM/F12, 0.1% ITSS. The resulting EBMs were analysed by immunohistochemistry using an anti-NF200 antibody. Positive staining for NF200 (dark regions) indicated neurons. A, EBM^7s cultured in the absence of NGF; B, EBM^7s cultured in the presence of NGF.
# (§1) EBs were grown in the presence of the conditioned medium MEDII for 7 days (EBM^7) as previously described in International Patent Application PCT/AU99/00265 to applicants, the entire disclosure of which is incorporated herein by reference.
# (§2) ES cells were seeded at a density of 1×10^5 cells/cm^2 In suspension culture in bacterial petri dishes in DMEM containing 50% MEDII. DMEM is defined as Dulbecco's Modified Eagles Medium (Gibco BRL), pH 7.4, containing high glucose and supplemented with 10% foetal calf serum (FCS; Commonwealth Serum Laboratories), 40 μg/ml gentamycin, 1 mM L-glutamine, 0.1 mM β-mercaptoethanol (β-ME). The resulting cell aggregates (EBMs) were split 1:2 after 2 days and seeded into fresh DMEM containing 50% MEDII. […]
# (§3) Antibody staining for NF200 and tyrosine hydroxylase (TH) was detected by alkaline phoaphatase activity. […]
# [2] = tested on: in vitro-derived neurectoderm (EBM7); experiment: Immunohistochemistry, TH: dopaminergic neuron formation from in vitro-derived neurectoderm (EBM7); assay type: cell-based; details: EBM7s, 10 ng/ml NGF days 7-10, 200 μM dopamine days 10-14 where present, day 14
# Experimental: FIG. 2: The culture of in vitro-derived neurectoderm in the presence of NGF and dopamine increases dopaminergic neuron formation. EBM^7s were seeded for 3 days in 50% DMEM/F12, 10 ng/ml FGF2, 0.1% ITSS, 1% FCS, and 10 ng/ml NGF, and for an additional 4 days in DMEM/F12, 0.1% ITSS, 200 μM ascorbic acid, with or without 200 μM dopamine. The resulting EBMs were analysed by immunohistochemistry using an anti-TH antibody. Positive staining for TH (dark regions) indicated dopaminergic neurons. A, EBM^7s cultured in the absence of NGF and dopamine; B, EBM^7s cultured in the presence of NGF; C, EBM^7s cultured in the presence of NGF and dopamine.
# as §1
# as §2, with “(β-ME).” for “(β-ME). The resulting cell aggregates (EBMs) were split 1:2 after 2 days and seeded into fresh DMEM containing 50% MEDII.”
# as §3
Molecule,proportion of cells staining positive for NF200 [1],TH positive cells (anti-TH antibody staining) [2]
"NGF: growth factor from the neural growth factor (NGF) family, used at 10 ng/ml",significantly increased,only a small proportion
"NCCc1ccc(O)c(O)c1 [dopamine, reference compound]",,significant increase
